From US8404836B2, “3-phenyl acrylic acid compound activators of type PPAR receptors and pharmaceutical/cosmetic compositions comprised thereof” (Galderma Research & Development, priority 2007, dated 2013)

Columns and labels:
[1] = biological target: T1, PPARα (Homo sapiens, UniProt Q07869); experiment: PPAR transactivation test in crossed curves (HeLN luciferase reporter), PPARα; format: cell-based; details: HeLN cells stably transfected with Gal-hPPARα and luciferase reporter; crossed curves vs reference agonist, Schild regression; read-out: PPAR alpha Kd app
T1 sequence (Q07869 200-468 limits assumed): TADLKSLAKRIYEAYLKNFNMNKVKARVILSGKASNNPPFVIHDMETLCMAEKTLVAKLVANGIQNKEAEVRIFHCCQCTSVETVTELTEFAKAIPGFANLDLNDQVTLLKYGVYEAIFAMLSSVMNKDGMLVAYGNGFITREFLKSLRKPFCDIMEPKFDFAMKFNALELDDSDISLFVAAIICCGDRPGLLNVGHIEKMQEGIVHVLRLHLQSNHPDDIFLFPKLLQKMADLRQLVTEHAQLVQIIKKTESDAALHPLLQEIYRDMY
Protocol: (§1) Activation of the PPAR receptors by an agonist (activator) in HeLN cells leads to the expression of a reporter gene, luciferase, which, in the presence of a substrate, generates light. The modulation of the PPAR receptors is measured by quantifying the luminescence produced after incubation of the cells in the presence of a reference agonist. The ligands will displace the agonist from its site. The activity is measured by quantifying the light produced. This measurement makes it possible to determine the modulating activity of the compounds according to the invention by determining the constant representing the affinity of the molecule for the PPAR receptor. This value, which can fluctuate according to the basal activity and expression of the receptor, is called apparent Kd (KdApp, nM).
(§2) To determine this constant, “crossed curves” of the test product versus a reference agonist are carried out in a 96-well plate: 10 concentrations of the test product plus a 0 concentration are arranged in rows, and 7 concentrations of the agonist plus a 0 concentration are arranged in columns. This is 88 measurement points for 1 product and 1 receptor. The 8 remaining wells are used for repeatability controls.
(§3) Measurements are also carried out for the total agonist controls with the same products.
(§4) The HeLN cell lines used are stable transfectants containing the plasmids ERE-βGlob-Luc-SV-Neo (reporter gene) and PPAR (α, δ, γ) Gal-hPPAR. These cells are sown in 96-well plates at a rate of 10 000 cells per well in 100 μl of DMEM medium without phenol red and supplemented with 10% of delipidated calf serum. The plates are then incubated at 37° C., 7% CO2 for 16 hours.
(§5) The various dilutions of the test products and of the reference ligand are added at a rate of 5 μl per well. The plates are then incubated for 18 hours at 37° C., 7% CO2.
(§6) The culture medium is removed by inverting and 100 μl of a 1:1 mixture PBS/Luciferine is added to each well. After 5 minutes, the plates are read with the luminescence reader.
(§7) These AC50 are used for calculating the Schild regression by plotting a straight line corresponding to the Schild equation (“Quantitation in receptor pharmacology” Terry P. Kenakin, Receptors and Channels, 2001, 7, 371-385) which provides the values of Kd app (in nM).

[2] = biological target: T2, PPARδ (Homo sapiens, UniProt Q03181); experiment: PPAR transactivation test in crossed curves (HeLN luciferase reporter), PPARδ; format: cell-based; details: HeLN cells stably transfected with Gal-hPPARδ and luciferase reporter; crossed curves vs reference agonist, Schild regression; read-out: PPARs delta Kd app
T2 sequence (Q03181 171-441 limits assumed): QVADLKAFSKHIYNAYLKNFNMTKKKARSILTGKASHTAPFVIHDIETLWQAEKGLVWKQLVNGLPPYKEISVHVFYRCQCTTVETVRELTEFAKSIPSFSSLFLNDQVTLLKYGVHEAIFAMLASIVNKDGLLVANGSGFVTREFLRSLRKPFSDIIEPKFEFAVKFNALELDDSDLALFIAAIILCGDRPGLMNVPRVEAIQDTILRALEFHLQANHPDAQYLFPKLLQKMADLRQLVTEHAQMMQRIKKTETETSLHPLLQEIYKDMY
Protocol: as §1, §2, §3, §4, §5, §6, §7

[3] = biological target: T3, PPARγ (Homo sapiens, UniProt P37231); experiment: PPAR transactivation test in crossed curves (HeLN luciferase reporter), PPARγ; format: cell-based; details: HeLN cells stably transfected with Gal-hPPARγ and luciferase reporter; crossed curves vs reference agonist, Schild regression; read-out: PPAR gamma Kd app
T3 sequence (P37231 238-505 limits assumed): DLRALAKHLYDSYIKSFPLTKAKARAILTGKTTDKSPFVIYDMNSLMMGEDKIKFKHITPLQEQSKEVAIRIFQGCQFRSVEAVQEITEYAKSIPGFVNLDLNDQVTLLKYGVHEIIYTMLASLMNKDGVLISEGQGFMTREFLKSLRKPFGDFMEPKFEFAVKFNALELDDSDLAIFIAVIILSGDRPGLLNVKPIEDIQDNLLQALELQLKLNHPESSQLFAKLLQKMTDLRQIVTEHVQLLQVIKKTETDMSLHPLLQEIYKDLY
Protocol: as §1, §2, §3, §4, §5, §6

Compound | melting point [°C] | Kd [1] [nM] | Kd [2] [nM] | Kd [3] [nM]
CCCCOc1cc(/C=C(\OCC)C(=O)O)ccc1OCCc1ccc(OS(C)(=O)=O)c(Cl)c1 [Example 16, (Z)-3-{3-butoxy-4-[2-(3-chloro-4-methanesulfonyloxy-phenyl)-ethoxy]-phenyl}-2-ethoxy-acrylic acid] | 113 |  |  | 
CCCCOc1cc(/C=C(\OCC)C(=O)O)ccc1CCCc1ccc(OS(=O)(=O)CCCC)c(OC)c1 [Example 3, (Z)-3-(4-{3-[4-(butane-1-sulfonyloxy)-3-methoxy-phenyl]-propyl}-3-butoxy-phenyl)-2-ethoxy-acrylic acid] |  | 60 | 250 | 15
CCCCS(=O)(=O)Oc1ccc(CCOc2ccc(/C=C(\OCC)C(=O)O)cc2OC)cc1 [Example 1, (Z)-3-(4-{2-[4-(butane-1-sulfonyloxy)-phenyl]-ethoxy}-3-methoxy-phenyl)-2-ethoxy-acrylic acid] | 94 |  |  | 8
CCCCOc1cc(/C=C(\OCC)C(=O)O)ccc1OCCc1ccc(OS(C)(=O)=O)c(OC)c1 [Example 7, (Z)-3-{3-butoxy-4-[2-(4-methanesulfonyloxy-3-methoxy-phenyl)-ethoxy]-phenyl}-2-ethoxy-acrylic acid] | 97 | 250 |  | 15
CCCCOc1cc(/C=C(\OCC)C(=O)O)ccc1OCCc1ccc(OS(=O)(=O)CCCC)c(Cl)c1 [Example 17, (Z)-3-(4-{2-[4-(butane-1-sulfonyloxy)-3-chloro-phenyl]-ethoxy}-3-butoxy-phenyl)-2-ethoxy-acrylic acid] | 80 | 60 | 1000 | 8
CCCCCOc1ccc(CCOc2ccc(/C=C(\OCC)C(=O)O)cc2OCCCC)cc1F [Example 12, (Z)-3-{3-butoxy-4-[2-(3-fluoro-4-pentyloxy-phenyl)-ethoxy]-phenyl}-2-ethoxy-acrylic acid] | 102 |  |  | 
CCCCCOc1ccc(CCOc2ccc(/C=C(\OCC)C(=O)O)cc2OCCCC)cc1Cl [Example 15, (Z)-3-{3-butoxy-4-[2-(3-chloro-4-pentyloxy-phenyl)-ethoxy]-phenyl}-2-ethoxy-acrylic acid] | 95 |  |  | 
CCCCOc1cc(/C=C(\OCC)C(=O)O)ccc1OCCc1ccc(OS(=O)(=O)CCCC)cc1OC [Example 9, (Z)-3-(4-{2-[4-(butane-1-sulfonyloxy)-2-methoxy-phenyl]-ethoxy}-3-butoxy-phenyl)-2-ethoxy-acrylic acid] |  | 2000 |  | 8
CCCCOc1cc(/C=C(\OCC)C(=O)O)ccc1OCCc1ccc(OS(C)(=O)=O)cc1OC [Example 10, (Z)-3-{3-butoxy-4-[2-(4-methanesulfonyloxy-2-methoxy-phenyl)-ethoxy]-phenyl}-2-ethoxy-acrylic acid] | 112 |  |  | 
CCO/C(=C\c1ccc(OCCc2ccc(OCC)cc2)c(OC)c1)C(=O)O [Example 19, (Z)-2-ethoxy-3-{4-[2-(4-ethoxy-phenyl)-ethoxy]-3-methoxy-phenyl}-acrylic acid] | 121 |  |  | 
CCCCOc1cc(/C=C(\OCC)C(=O)O)ccc1OCCc1ccc(N(C)S(C)(=O)=O)cc1 [Example 23, (Z)-3-(3-butoxy-4-{2-[4-(methanesulfonyl-methyl-amino)-phenyl]-ethoxy}-phenyl)-2-ethoxy-acrylic acid] | 112 |  |  | 
CCCCOc1cc(/C=C(\OCC)C(=O)O)ccc1OCCc1ccc(OS(=O)(=O)CCCC)cc1 [Example 6, (Z)-3-(4-{2-[4-(butane-1-sulfonyloxy)-phenyl]-ethoxy}-3-butoxy-phenyl)-2-ethoxy-acrylic acid] |  | 120 |  | 2
CCCCOc1cc(/C=C(\OCC)C(=O)O)ccc1OCCc1ccc(OCC)c(F)c1 [Example 11, (Z)-3-{3-butoxy-4-[2-(4-ethoxy-3-fluoro-phenyl)-ethoxy]-phenyl}-2-ethoxy-acrylic acid] | 119 |  |  | 
CCCCOc1cc(/C=C(\OCC)C(=O)O)ccc1OCCc1ccc(OS(=O)(=O)CCCC)c(OC)c1 [Example 8, (Z)-3-(4-{2-[4-(butane-1-sulfonyloxy)-3-methoxy-phenyl]-ethoxy}-3-butoxy-phenyl)-2-ethoxy-acrylic acid] |  | 120 | 2000 | 15
CCCCOc1cc(/C=C(\OCC)C(=O)O)ccc1OCCc1ccc(OS(=O)(=O)CCCC)c(F)c1 [Example 13, (Z)-3-(4-{2-[4-(butane-1-sulfonyloxy)-3-fluoro-phenyl]-ethoxy}-3-butoxy-phenyl)-2-ethoxy-acrylic acid] | 99 | 250 | 2000 | 8
CCCCOc1cc(/C=C(\OCC)C(=O)O)ccc1OCCc1ccc(NS(=O)(=O)CCCC)cc1 [Example 22, (Z)-3-(4-{2-[4-(butane-1-sulfonylamino)-phenyl]-ethoxy}-3-butoxy-phenyl)-2-ethoxy-acrylic acid] | 164 |  |  | 
